In patent US20070207201A1, “Liquid and Semi-Solid Pharmaceutical Formulations and Processes” (Wyeth, priority 2006, published 2007):

What was measured:
Format in all cases: physicochemical
[1] = Water solubility of the two crystal forms; settings: for solubility: water, thermodynamic from solid
[2] = Dynamic vapor sorption (hygroscopicity) of the two crystal forms; settings: for DVS weight gain: 0–90% RH
Source text: Dynamic Vapor Sorption (Allentown, Pa.) was used to measure the hygroscopicity of the anhydrate and monohydrate of the invention (see FIGS. 6 and 7). The step conditions were three hours each at 0%, 30%, 52.5%, 75% and 90% RH, two full cycles.

[3] = Stability studies of the two crystal forms (crystal form by XRPD/TGA); settings: for Long term stability of crystal form (XRPD and TGA): non-micronized, three months
Method: Samples of monohydrate were stored at room temperature, 56° C., and 70° C. for one week. At room temperature, humidity was maintained at 0% RH. Humidity was not controlled for the higher temperatures.
The samples were analyzed by XRPD and TGA.
(§1) Non-micronized samples of monohydrate and anhydrate were stored at 40° C./75% RH for three months. The monohydrate was also stored at 40° C. without humidity control. During the three months, the samples were checked after two weeks, one month, two months, and three months.

[4] = Chemical stability of the crystal forms on storage (HPLC); settings: non-micronized, 40° C./75% RH (monohydrate also 40° C. without humidity control), three months
Method: as §1

[5] = Stability studies of the two crystal forms (crystal form by XRPD/TGA)

C=Cc1cc(O)cc2nc(-c3ccc(O)c(F)c3)oc12 [Monohydrate, 2-(3-fluoro-4-hydroxyphenyl)-7-vinyl-1,3-benzoxazol-5-ol]
Water solubility compared between the two forms [1]: significantly lower solubility than the anhydrate
solubility ([1]; pH 7.11, water): 2.34 µg/mL
solubility ([1]; pH 7.51, water): 2.21 µg/mL
Hygroscopicity (from DVS data) [2]: largely non-hygroscopic
DVS weight gain [2]: 0.1% gain (0–90% RH)
Medium term stability of crystal form (XRPD and TGA) ([3]; 56° C., humidity not controlled, one week): no obvious dehydration
Medium term stability of crystal form (XRPD and TGA) ([3]; 70° C., humidity not controlled, after 1 day): no obvious hydration
Medium term stability of crystal form (XRPD and TGA) ([3]; 70° C., humidity not controlled, after 4 days): partially dehydrated
Medium term stability of crystal form (XRPD and TGA) ([3]; 70° C., humidity not controlled, after 7 days): mostly dehydrated
Long term stability of crystal form (XRPD and TGA) ([3]; 40° C. without humidity control): did not transform
Long term stability of crystal form (XRPD and TGA) ([3]; 40° C./75% RH): did not transform
Medium term stability of crystal form (XRPD and TGA) ([3]; room temperature, 0% RH, one week): no obvious dehydration
Long term chemical stability (HPLC) [4]: chemically stable
Short term stability of crystal form (XRPD) ([5]; 70° C. for one hour): stable
Short term stability of crystal form (XRPD) ([5]; 90° C. after one half hour): partially dehydrated
Short term stability of crystal form (XRPD) ([5]; 90° C. after one hour): completely dehydrated

C=Cc1cc(O)cc2nc(-c3ccc(O)c(F)c3)oc12 [Anhydrate, 2-(3-fluoro-4-hydroxyphenyl)-7-vinyl-1,3-benzoxazol-5-ol]
solubility ([1]; pH 7.29, water): 10 µg/mL
solubility ([1]; pH 7.7, water, pH 7.70): 12.8 µg/mL
Hygroscopicity (from DVS data) [2]: largely non-hygroscopic
DVS weight gain [2]: 0.2% gain (0–90%
Long term stability of crystal form (XRPD and TGA) ([3]; 40° C./75% RH): did not transform
Long term chemical stability (HPLC) [4]: chemically stable
Long term stability of crystal form (XRPD) ([5]; micronized, 25° C./60% RH, three months): did not transform to the monohydrate
Long term stability of crystal form (XRPD) ([5]; micronized, 40° C./75% RH, after one month): partially transform to the monohydrate
Long term stability of crystal form (XRPD) ([5]; non-micronized, 40° C./75% RH, separate study): did not show any obvious transformation
